Assay results taken from patent publication US8722649B2, “Alpha-chloro and alpha-bromo phosphonate analogs of lysophosphatidic acid and methods of making and using thereof” (University of Utah Research Foundation, priority 2007, dated 2014).
Entries after “also recorded” stand apart in the source; their conditions may differ.

Legend:
MDA-MB-231 cells [1] = assay: Scratch wound healing migration assay; format: cell-based; conditions: for MDA-MB-231 cell migration in words: 10 and 40 μM, 24 h
Description: Inhibition of migration. MDA-MB-231 cells were plated in triplicate into six-well plates at a concentration of 3×10^5 cells per well. Approximately 48 hours later, the confluent cells were carefully scratched using sterile pipette tips. Nonadherent cells and cellular debris were removed by washing with PBS. Fresh medium with or without various concentrations of BrP-LPA 1, syn-BrP-LPA 1a, or anti-BrP-LPA 1b (1-100 μM) were added to the wounded monolayers. Cells were observed under the microscope and digitally photographed at different times. Inhibition of migration was assessed when the wound in the control was closed and quantified by using ImageJ.

MDA-MB-231 cells [2] = assay: Orthotopic breast cancer xenograft; format: in vivo, nude mice; conditions: 3 mg/kg i.p., relative to control group
Description: Orthotopic Human Breast Cancer Models. 4-week-old female athymic nude mice (Charles River Laboratories) were anesthetized by intraperitoneal injection of ketamine (80 mg/kg) and xylazine (10 mg/kg),according to the protocol approved by the University of Utah Institutional Animal Care and Use Committee (IACUC). Then the thoracic skin was sterilized with iodine and alcohol swabs.
MDA-MB-231 were trypsinized and resuspended in 2.5% CMHA-S and 3% gelatin-DTPH (v:v=1:1). Then, one volume of 4% PEGDA solution was added to four volumes of the cell suspension, and the resulting suspension was mixed gently by vortexing. The final cell concentration was 5×10^7 cells/ml. When the cell suspension was becoming viscous (ca. 3-5 min at 20° C.), 200 uL of gel was injected subcutaneously into the fourth mammary fat pad of each mouse, using a total of six mice per group.
The assessment of chemotherapy on breast cancer. The mice were randomly divided into 4 groups, including control (physiological saline), paclitaxel, LPA antagonist (19b), and paclitaxel followed by 19b. Six mice for each cell line were necessary to get statistically significant results according to literature. The control group received physiological saline i.p. injection twice per week starting at two weeks after the cell transplantation and ending at two weeks after the treatment. The treatment groups received i.p. administration of paclitaxel (10 mg/kg/day) or 19b (10 mg/kg/day) twice per week with the same period of control group. One additional group included 2 dose of paclitaxel followed by 2 dose of 19b with the same period of control group. The treatment was received […] twice per week for 2 weeks total.
The body weight and tumor size were measured twice per week, and general clinical status of the animals was also assessed every day. Perpendicular tumor diameters were measured using a vernier scale caliper and tumor volume estimated using the formula for ellipsoid: […] (mm^3)=[width(mm)^2×length(mm)]/2. Data are expressed as median tumor areas with interquartile ranges.
Animals were euthanized at 4 weeks postinjection or once any signs of broken skin caused by the extension of tumor are found. Tumors were excised with surrounding tissues for histological evaluation. Analysis of variance was used to analyze the statistical difference on tumor growth between different groups. The results are in FIG. 8, where it is shown that the volume of the tumors is the lowest when mice were treated with paclitaxel followed by the administration of 19b.
Xenograft establishment and chemotherapy. […] The tumor sizes were measured and calculated by formula: tumor size (mm^3)=[width (mm)]^2×[length (mm)]/2. […]

HCT 116 cells = assay: Hepatic colon cancer tumor growth; format: in vivo, nude mice; conditions: 10 mg/kg i.p. twice per week
Description: Four-week-old female athymic nude mice (Charles River Laboratories, Wilmington, Mass.) were used for colon cell implantation. All animals were maintained in a sterile environment. Cages, bedding, food, and water were all autoclaved. All animals were maintained on a daily 12-hr light/12-hr dark cycle.
Nude mice were anesthetized by intraperitoneal injection of ketamine (80 mg/kg) and xylazine (10 mg/kg) according to the protocol approved by the University of Utah Institutional Animal Care and Use Committee (IACUC).
After anesthesia induction, the aseptic surgical field was sterilized with iodine and alcohol swabs. HCT 116 cells (1×10^6) in 50 μl of the sECM hydrogel Extracel was directly injected into the livers of nude mice after they had been randomly assigned to one of the groups at the beginning of the experiment (8 mice/group).
The control group received physiological saline i.p. injection twice per week starting at one week after the cell transplantation and ended at two weeks after the treatment. The treatment group received i.p. administration of the pure diastereomers 1b at 10 mg/kg twice per week with the same period of control group.
Mice were observed daily. Animals were euthanized at 3 weeks post-injection in a carbon dioxide chamber. Body weights were measured, and the livers were excised. Liver weights and tumor diameters were subsequently determined. Colon tumors were measured using digital calipers. The volume of the cancer was then calculated according to the formula: Cancer Volume (CV)=d2×D/2, where d and D are the shortest and the longest diameters, respectively. After measurement, the tumor tissue was then harvested and placed in 10% formalin for paraffin embedding in preparation for the subsequent histological analyses.

Compound	MDA-MB-231 cell migration in words (MDA-MB-231 cells [1])	tumor volume, separate diastereomers (MDA-MB-231 cells [2])	decrease of MDA-MB-231 cell migration (MDA-MB-231 cells [1]; 40 μM, compared to control, scratch wound)	hepatic tumor burden (liver weight) (HCT 116 cells)	new blood vessels in hepatic colon tumor (H&E) (HCT 116 cells)	hepatic tumor size / tumor volume in words (HCT 116 cells; vs untreated control)
CCCCCCCCCCCCCCCC(=O)OC[C@@H](O)C[C@@H](Br)P(=O)(O)O [Compound 1a]	inhibited the MDA-MB-231 cell migration	significantly decreased the tumor volume; also recorded: reduces tumor size				
CCCCCCCCCCCCCCCC(=O)OC[C@@H](O)C[C@H](Br)P(=O)(O)O [Compound 1b]	inhibited the MDA-MB-231 cell migration	significantly decreased the tumor volume; also recorded: reduces tumor size	57%	marked reduction of hepatic tumor burden; also recorded: significantly reduced tumor burden	significantly reduced amounts of new blood vessels	significantly smaller; also recorded: significant decrease in tumor volume; also recorded: smaller than the untreated control
